Laboratory results taken from patent US10603357B2, “Therapeutic TREM-1 peptides” (Universite de Lorraine, priority 2004, dated 2020).

Tests used:
Type in all cases: in vivo, mouse
mice = assay: DSS colitis model in mice, hP5 (Example 7)
Protocol: On day 0 of the study, the water supply was removed and replaced with 3% Dextran Sulfate Sodium (DSS) From day 0 to day 6, this solution was the only source of fluids. Water was administered for the rest of the experiment (day 7-11). Healthy controls received water only.
From day 3 to day 10 mice were treated with either hP5, or a sequence-scrambled control peptide. Peptides were dissolved in DMSO at 10 mg/ml and stored at +4° C. Before administration, the stock solution was diluted 1:10 in water 10% Solutol® HS 15 (BASF). Final vehicle concentrations: 1% DMSO, 10% solutol in water. 200 μl of these freshly prepared solutions of hP5, its scrambled control or vehicle were injected intraperitoneally with a 25 G needle.
Animals were weighted daily and monitored on days 3, 4, 5, 6, 7 and 10 for rectal bleeding and stool consistency. For each group, the disease activity index (DAI) was determined by evaluating changes in weight, stool consistency and presence of gross blood during the study, as described below:
To determine the presence of occult blood in stool, a pea-sized stool sample was placed on a slide. Then two drops of reagent (Hemocult Sensa, Beckman Coulter) were placed onto the stool sample on the slide and a change of colour was observed. The presence of occult blood was graded using a score of 0 for no colour; 1 for a very light blue (+/−) colour taking over 30 seconds to appear, 2 for a blue colour developing in […] (+); 3 for an immediate change in colour (++) and 4 for gross blood observable on the slide.
On day 11 mice were euthanized by cervical dislocation to allow colon length evaluation. An incision was done in the abdomen to expose the colon. The stool in the colon was removed flushing with saline. The entire colon from cecum to anus was removed and the length was measured and reported as colon length (cm).
Data were analyzed using Graph Pad Prism. Results are given as means±standard error of the mean. The BW score, stool score and blood score were analyzed using two-way ANOVA test, Bonferroni post test. Colon length was analysed using one-way ANOVA, Dunn's post test. *P≤0.05; **P≤0.01; ***P≤0.001

BALB/c mice = assay: endotoxin-induced septic shock in mice, hP5 (Example 5); conditions: 200 microliters peptide i.p. at −1 h, 0 h, +4 h, 200 microg LPS i.p., 15 mice per group
Protocol: Septic shock was induced in male Balb/c mice (n=15/group) with […] of LPS as described in Material and Methods. hP5 peptide or control were administered at the following time points: −1 h, 0 h, +1 h+4 h. Mortality was followed twice a day for 7 days. Data were analysed using GraphPad Prism Survival curve analysis.
For the experiment, male BALB/c mice (19-21 g) were randomly grouped (15 mice per group) and injected intraperitoneally (i.p.) with 200 microg of LPS from E. coli 0111:B4 (Sigma). A blinded investigator performed all injections. 200 microliters of TREM-1 peptides dissolved in water 10% DMSO, 9% Solutol were administered intraperitoneally at −1 h, 0 h, +1 h, +4 h prior and after LPS injection. Viability of treated mice was monitored twice a day for 7 days.

C57BL/6 mice = assay: Cecal Ligation and Puncture model in mice, hP5 (Example 6); conditions: 200 μl i.p. at −1 h, 0 h, +4 h and +24 hours; n=15/group
Protocol: Mortality was followed twice a day for 10 days. Data were analyzed using GraphPad Prism Survival curve analysis.
For the experiment the mice underwent a standardized preparation for laparotomy (anaesthesia with 2% inhaled isoflurane in oxygen, shaving with animal clippers, alcohol scrub). A 1 cm incision was made on the midline. The cecum was exposed and will be tightly ligated at 50-80% over its base with a 4-0 silk suture avoiding bowel obstruction. The cecum was then punctured once with a 23G needle. The cecum was gently squeezed until feces be just visible through the puncture, and placed again in the abdominal cavity. The incision was thereafter be closed with a 4-0 silk. 200 μl of hP5 or its scrambled peptide control were freshly dissolved in water 10% DMSO, 9% solutol and injected intraperitoneally with a 22 G needle at the following time points: −1, 0, +4, +24. No fluid resuscitation was administered.
Survival and Moribundity were observed twice a day for 10 days.

Q: “LQVEDSGLYQCVIYQPP (listed as Homo sapiens) [hP5]” was tested. Which “Disease Activity Index (DAI) score” value (mice; 3% DSS day 0-6, peptide i.p. daily from day 3, day 5, mean ± standard error) did it give?
A: Its value is 1.95±0.170.

Q: And the “DAI inhibition compared to DSS+vehicle or DSS+scrambled peptide” value (mice; day 5)?
A: The value was about 50%.

Q: And the “Stool score (stool consistency)” value (mice; day 10, mean ± standard error)?
A: The value was 0.71±0.474.

Q: And the “blood score (haemoccult / gross blood)” value (mice; day 10, mean ± standard error)?
A: The value was 0.43±0.202.

Q: And the “weight loss, expressed as a score” value (mice; day 10, mean ± standard error)?
A: The value was 2.00±0.436.

Q: What about the colon length (mice; day 11, mean ± standard error) of the same sequence?
A: Its colon length is 7.41±0.237 cm.

Q: And the “animals alive 7 days after LPS injection” value (BALB/c mice)?
A: Its value is 80%.

Q: What about the “mice alive at 10 days after CLP” value (C57BL/6 mice) of the same sequence?
A: Its value is 66.6%.

Q: What about the “mice surviving at 72 hours after CLP” value (C57BL/6 mice) of the same sequence?
A: Its value is 73.3%.
